Laboratory results from patent publication US10092657B2, “Opsonized β-glucan preparations and methods” (Biothera, Inc., priority 2011, dated 2018).

Experiments:
human neutrophils [1] = assay: Binding of PGG β-glucan after serum pre-treatment, neutrophils; type: cell-based; details: 200 μg/mL; 10% HI serum; two hours at 37° C.
Procedure: PGG β-glucan at concentration 60-80 mg/mL was incubated with human serum at 1:10 volume ratio for 30 minutes in a 37° C. water bath. The serum-pretreated PGG β-glucan was added to neutrophils at 200 μg/mL or to PBMC at 100 μg/mL resuspended in RPM1 containing either 10% regular autologous serum or 10% HI serum at indicated time and temperature of incubation. Binding was then determined as described previously.
To determine the role of complement proteins in binding, experiments were performed as described above except for using serum containing 10% HI, compstatin-treated or methylamine (MA)-treated, EGTA- or EGTA+MgCl2 (MgEGTA)-treated, or factor D-blocked serum. Heat-inactivated (HI) serum was prepared by incubating serum in a 56° C. water bath for 30 minutes. […] Treatment of serum with methylamine (MA) was done by incubating serum with 0.67% of methylamine for 2.5 hours at 37° C., followed by three washes with DPBS using Amicon centrifugal filter unit with a 3K MW cut-off (Millipore, Billerica, Mass.). DPBS-treated serum was prepared in the same manner and used as control serum for MA-treated serum. For blocking of factor D in the serum, 166-32 at concentration 20 μg/mL was incubated with serum on ice for 30 minutes, and then used for binding studies. […]

T-cells = assay: Binding of PGG β-glucan to T-cells within PBMC (BfD IV staining, flow cytometry); type: cell-based, human; details: 100, 200, 400 μg/mL; 10% autologous serum; 37° C.; two hours
Procedure: Enriched neutrophils or PBMC were resuspended at 1×10^6 cells/mL in RPMI 1640 supplemented with 10% serum. PGG β-glucan at hexose concentrations 100 μg/mL, 200 μg/mL, or 400 μg/mL were added to neutrophils or PBMC and incubated in a 37° C., 5% CO2 humidified incubator for two hours. After incubation, cells were washed twice with FACS buffer (HBSS supplemented with 1% FBS and 0.1% sodium azide) to remove any unbound β-glucan, and subsequently treated with Fc block (Miltenyi Biotec, Auburn, Calif.). After the Fc block step, cells were stained with the BfD IV Ab for 30 minutes at 4° C. and washed twice with cold FACS buffer. Cells were then incubated with FITC-conjugated F(ab′)2 goat anti-mouse IgM for 30 minutes at 4° C. and washed once with cold FACS buffer before fixing with 1% paraformaldehyde.
In early optimization experiments, neutrophils, monocytes, and T cells were identified by staining with fluorescently labeled anti-CD 15, anti-CD 14, or anti-CD3 Abs, respectively. […] Surface binding of DTAF-conjugated β-glucan was subsequently assessed by flow cytometric analysis. To determine receptor-specific binding, binding of 25 μg/mL of DTAF-labeled PGG β-glucan was assessed by incubating the labeled β-glucan with the cells in the presence of 10 mg/mL of unlabeled PGG β-glucan or dextran.

human neutrophils [2] = assay: Binding studies on the role of complement proteins in serum, neutrophils; type: cell-based
Procedure: Heat-inactivated (HI) serum was prepared by incubating serum in a 56° C. water bath for 30 minutes. […] Treatment of serum with methylamine (MA) was done by incubating serum with 0.67% of methylamine for 2.5 hours at 37° C., followed by three washes with DPBS using Amicon centrifugal filter unit with a 3K MW cut-off (Millipore, Billerica, Mass.). DPBS-treated serum was prepared in the same manner and used as control serum for MA-treated serum. For blocking of factor D in the serum, 166-32 at concentration 20 μg/mL was incubated with serum on ice for 30 minutes, and then used for binding studies. For binding experiments in the presence of EGTA or MgEGTA, serum was incubated with 10 mM EGTA with or without 10 mM MgCl2 for 10 minutes at room temperature. The untreated and EGTA/MgEGTA-treated serum was then used to pre-treat PGG and perform binding studies as described earlier.

iC3b = target: T1, iC3b (Homo sapiens, UniProt P01024); assay: ELISA for iC3b deposition on immobilized PGG β-glucan; type: binding; details: 300 μg/mL immobilized
T1 construct: from tissue
T1 sequence (P01024 749-1303 limits assumed): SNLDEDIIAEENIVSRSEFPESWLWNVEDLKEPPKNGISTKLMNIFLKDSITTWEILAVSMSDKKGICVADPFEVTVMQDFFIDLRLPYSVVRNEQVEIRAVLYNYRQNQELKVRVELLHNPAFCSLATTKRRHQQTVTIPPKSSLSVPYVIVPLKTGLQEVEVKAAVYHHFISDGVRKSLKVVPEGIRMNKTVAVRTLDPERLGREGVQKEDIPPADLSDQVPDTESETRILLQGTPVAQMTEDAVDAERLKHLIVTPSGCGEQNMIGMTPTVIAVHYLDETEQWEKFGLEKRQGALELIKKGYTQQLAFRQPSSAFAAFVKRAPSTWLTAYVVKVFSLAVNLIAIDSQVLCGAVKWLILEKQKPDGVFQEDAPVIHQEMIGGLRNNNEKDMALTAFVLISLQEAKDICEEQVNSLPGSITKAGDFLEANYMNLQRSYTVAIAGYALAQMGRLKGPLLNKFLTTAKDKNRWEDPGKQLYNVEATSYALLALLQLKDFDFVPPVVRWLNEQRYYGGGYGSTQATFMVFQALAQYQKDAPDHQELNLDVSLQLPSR
T1 sequence (P01024 23-667 partner limits assumed): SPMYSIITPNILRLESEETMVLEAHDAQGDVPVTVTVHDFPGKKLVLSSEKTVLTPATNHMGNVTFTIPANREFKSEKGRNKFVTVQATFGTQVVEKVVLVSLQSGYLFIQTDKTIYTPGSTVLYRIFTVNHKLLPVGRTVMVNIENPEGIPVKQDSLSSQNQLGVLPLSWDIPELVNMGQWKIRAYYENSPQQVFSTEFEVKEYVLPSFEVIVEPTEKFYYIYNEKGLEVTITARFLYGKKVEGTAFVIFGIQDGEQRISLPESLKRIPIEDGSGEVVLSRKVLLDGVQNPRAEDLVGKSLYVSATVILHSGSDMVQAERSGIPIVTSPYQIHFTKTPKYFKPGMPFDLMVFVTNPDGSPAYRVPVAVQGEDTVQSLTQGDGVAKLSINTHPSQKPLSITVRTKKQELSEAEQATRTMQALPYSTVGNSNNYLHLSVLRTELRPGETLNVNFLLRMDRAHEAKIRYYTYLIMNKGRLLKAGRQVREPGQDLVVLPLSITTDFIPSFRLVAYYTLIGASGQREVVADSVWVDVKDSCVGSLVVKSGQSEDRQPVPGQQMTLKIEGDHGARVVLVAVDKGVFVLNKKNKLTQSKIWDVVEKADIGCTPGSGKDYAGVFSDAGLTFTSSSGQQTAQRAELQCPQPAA
T1 sequence (P01024 1321-1663 partner limits assumed): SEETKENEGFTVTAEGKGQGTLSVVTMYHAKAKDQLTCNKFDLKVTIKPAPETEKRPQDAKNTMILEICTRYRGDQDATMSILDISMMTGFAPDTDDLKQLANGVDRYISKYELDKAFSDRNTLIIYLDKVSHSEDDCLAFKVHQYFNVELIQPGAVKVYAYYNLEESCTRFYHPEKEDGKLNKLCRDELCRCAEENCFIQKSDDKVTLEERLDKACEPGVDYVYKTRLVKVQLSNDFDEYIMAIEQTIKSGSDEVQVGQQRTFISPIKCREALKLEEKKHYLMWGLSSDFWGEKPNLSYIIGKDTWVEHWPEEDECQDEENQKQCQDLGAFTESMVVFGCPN
Procedure: PGG β-glucan or dextran was immobilized on wells of a 96-well polystyrene plate (COSTAR, Coming, Inc., Lowell, Mass.) by drying the glucans at 50° C. followed by UV cross-linking. The glucan-coated plate was first blocked with 1% BSA before incubation with untreated serum or serum undergone various treatments as described in binding studies, diluted 1:2 with wash buffer (PBS/0.05% Tween-20) for 30 minutes at 37° C. After washing the serum from the plate, the bound iC3b was probed using the anti-iC3b monoclonal antibody followed by biotin-labeled goat anti-mouse IgG Ab. The amount of immobilized biotin-labeled antibody was determined using streptavidin peroxidase and TMB substrate solution (KPL, Gaithersburg, Md.). OD450 of each well was measured with the spectrophotometer SpectraMAX 250 (Molecular Devices, Sunnyvale, Calif.). Fold change was calculated as OD450 of wells containing immobilized β-glucan divided by OD450 of wells containing no β-glucan, both incubated in the presence of treated or untreated serum.

β(1,6)-[poly-1,3)-D-glucopyranosyl]-poly-β(1,3)-D-glucopyranose [PGG β-glucan]
Extent of rescued binding to cells in HI serum (MFI, percentage of BfD IV positive cells) (human neutrophils [1]): minimal
Binding (MFI and percentage of BfD IV positive cells) (T-cells): not to T-cells
Binding in the presence of heat inactivated (HI) serum (human neutrophils [2]; 10% HI serum vs regular serum, 200 μg/mL): abrogated
Average percentage of binding inhibition in HI serum (human neutrophils [2]; based on MFI, five donors): 89%
Range of percentage of binding inhibition in HI serum (human neutrophils [2]; based on MFI, five donors): 71-100%
Fold increase of iC3b detected on immobilized glucan compared to background (iC3b; HI serum 30 minutes at 37° C.): significantly less iC3b detected
Fold increase of iC3b detected on immobilized glucan compared to background (iC3b; regular serum 30 minutes at 37° C.): significantly higher
